The record followed here is a melting point compilation (Tetko et al.; mined from patent text by program, amines drawn as free bases though some values may be those of a salt).

Bounds are passed on as bounds.

As a reminder, the melting point is the temperature, or range, at which the solid turns liquid. The molecule `CCc1cc(Br)cc2nc3c(=O)[nH][nH]c(=O)c3c(O)c12` had a melting point of 208 to 210 °C.
As for `CCOCn1c(S(=O)(=O)C(F)(F)C(F)Cl)c(C#N)c2ccccc21` (centres undefined), the melting point fell in the range of 97 to 100 °C.
The molecule `CCOC(=O)c1cc2c3cc(Br)ccc3ncn2c1` had a melting point of 183 to 185 °C.
In turn, `CC(C)(O)CCOc1c(-c2ccc(S(N)(=O)=O)cc2)cnn(-c2ccc(F)c(F)c2)c1=O` showed a melting point of 181 °C.
The figure for `COC(=O)c1cc([N+](=O)[O-])ccc1-c1ccc([N+](=O)[O-])cc1C(=O)OC` is 176 to 177 °C.
`Cc1[nH]c(=O)c(C#N)cc1-c1ccc2ncc(Cl)n2c1` had a melting point of over 300 °C.
`O=C1C(=Cc2ccccc2)c2ccccc2N1C1=NCCS1` yielded a melting point of 120 to 125 °C.
Take `Clc1ccc(Nc2ncnc(-c3ccnc(N4CCCCC4)c3)n2)cc1`: the melting point is 205 to 206 °C.
`COc1ccc(C2=NN(CCCCCCNCC(O)c3ccc(N)c(C#N)c3)C(=O)C3CCCCC23)cc1OC` (centres undefined) yielded a melting point of 101 to 103 °C.
As for `Cn1nc(C(F)(F)F)c(CS(=O)(=O)C2=NOC(C)(CCl)C2)c1Cl` (centres undefined), the melting point fell in the range of 114 to 116 °C.
`CCOC(=O)CC(NC(=O)c1ccccc1)C(=O)C(C)C` (centres undefined): the melting point was in the range of 44 to 46 °C.
Then `CC(C)(C)NC(=O)Nc1nc2nc(N)ncc2cc1-c1c(Cl)cccc1Cl`, with 335 °C; and `Nc1ccccc1C1=NN(c2ccc(Cl)cc2)C(=O)C1`, with 199 to 201 °C; and `Cc1c(C)c2c(c(Cl)c1C=O)OCC2`, with 129 °C.
In turn, `O=C(O)c1[nH]c(-c2cccs2)cc1-c1ccc(F)cc1` had a melting point of 194 to 195 °C.
As to `COc1cc(S(C)=O)ccc1-c1nc2ncc(O)cc2[nH]1` (centres undefined), the melting point lay within 220 to 223 °C.
`COc1cc(CC(=O)NCCOc2ccc(C)c(C)c2)ccc1OCCN` came in with a melting point of 95 to 97 °C.
`CC1CCN(Cc2ccc(C=CC(=O)Nc3ccc(-c4ccc(Cl)cc4)cc3)cc2)CC1` showed a melting point of 207 to 208 °C.
Then `Cc1cc2[nH]c(=O)ccc2c(Br)n1`, with 276 to 278 °C; and `Cc1ccc(S(=O)(=O)NC(=O)N2C(=O)C(c3ccccc3)N2C(c2ccccc2)c2ccccc2)cc1` (centres undefined), with 154 to 156 °C.
The figure for `Cc1nn2c(C(F)(F)F)cc(-c3cccc(C(F)(F)F)c3)nc2c1C#N` is 215 °C; for `CCS(=O)c1c(C#N)nn(-c2c(Cl)cc(C(F)(F)F)cc2Cl)c1NCCSC` (centres undefined) it is 111 to 113 °C; for `CCCN(C(N)=S)C(c1ccncc1)C1CC1` (centres undefined) it is 171 °C.
The figure for `CCOC(=O)C=C1CCc2c(c(OC)c(OC)c(OC)c2OC)CC1` is 61 to 63 °C; for `Cc1c(-c2ccccc2)c(=O)[nH]c2ccccc12` it is 266 to 268 °C; for `O=C(c1ccncc1)[N+]1([O-])CCN(C2c3ccc(Cl)cc3OCc3cccnc32)CC1` (centres undefined) it is 206 to 208 °C.
In turn, `Nc1ccc(C(=O)O)c([N+](=O)[O-])c1` displayed a melting point of 230 °C.
With `COC1=C(OC)C(=O)OC1=O`, the melting point fell in the range of 41 to 43 °C.
For the molecule `NC(=O)c1cn(Cc2c(F)cccc2F)nn1`, the melting point lay in the range of 237 to 240 °C.
The figure for `COC(=O)C(CCCCNC(=O)OCc1ccccc1)NC(=O)CCC(C)C1CCC2C3C(O)CC4CC(O)CCC4(C)C3CC(O)C12C` (centres undefined) is 80 to 83 °C.
Then `COc1ccc([C@@H]2CCc3cc(OC)ccc3[C@@H]2Cn2ccnc2)cc1` (relative stereo), with 114 °C; and `COc1ccc(-c2nc(Cn3cnnc3)nc3cc(OC)c(OC)cc23)cc1`, with 212 to 213 °C.
In turn, `O=C(c1cccc([N+](=O)[O-])c1)n1nc(O)c2ccccc21` had a melting point of 232 to 234 °C.
In turn, `CCOC(=O)n1c(C(=O)c2cncnc2)c(NC(C)=O)c2ccc(Cl)cc21` displayed a melting point of 214 to 215 °C.
`CNS(=O)(=O)c1ccc(N)c(C(=O)N2CCNCC2)c1` gave a melting point of 169 °C.
Consider `OCCOc1nc2ncnc(NCc3ccco3)c2[nH]1`, for which the melting point lay in the range of 182 to 184 °C.
`CS(=O)(=O)c1nccn1CC(=O)Cl` gave a melting point of 132 to 133 °C.
The molecule `N#Cc1ccc(OCc2ccccc2)c(O)c1` showed a melting point of 101 °C.
In the case of `COc1cc(N2CCC(N3CCN(C)CC3)CC2)ccc1Nc1ncc2ccc(Br)n2n1`, the melting point was 171 to 173 °C.
`CCCc1nc2c(N)nc3ccccc3c2n1CCCCNC(=O)c1ccccc1`: the melting point was 173 to 174 °C.
`O=C(Oc1ccc2c(=O)cc(N3CCOCC3)oc2c1)c1ccccc1`: the melting point fell in the range of 204 to 206 °C.
As for `CCOC(=O)c1cnc(-c2ccccc2)nc1OCc1ccc(OCc2nc(-c3ccco3)oc2C)c(OC)c1`, the melting point lay in the range of 142 to 143 °C.
In turn, `CCN(CC)C(=O)N(C1CCCCC1)C1CCN(C(=O)C(Cc2ccc(Cl)cc2)NC2CCNCC2)CC1` (centres undefined) returned a melting point of over 220 °C.
For the molecule `COc1ccc(C2=NN(c3ccc(C(=O)O)cc3)C(=O)C(C)(C)C2)cc1OC`, the melting point was in the range of 196 to 198 °C.
Take `Cc1cc(-c2c(-c3ccc(S(N)(=O)=O)cc3)cnn(-c3ccc(F)c(F)c3)c2=O)ccc1F`: the melting point was 243 to 245 °C.
`CC(C)Oc1cc(-n2c(=O)c3c(n(C)c2=O)CCCC3)c(F)cc1Cl` had a melting point of 143 to 145 °C.
`CCCCCCOc1ccc(CCC(=O)OC2CCC3C4CCC5=CC(=O)CCC5C4CCC23C)cc1` (centres undefined): the melting point was in the range of 52 to 53 °C.
Molecule `CCOC(=O)c1cc2c(nc1C)CCCC2` yielded a melting point of 105 to 106 °C.
For the molecule `Nc1nc(-c2cn([C@H](CO)CCc3ccccc3)cn2)n[nH]1`, the melting point turned out to be 80 °C.
Molecule `O=S(=O)(Nc1nnc(Cl)cc1OCc1cccnc1)c1cccc(Cl)c1Cl` registered a melting point of 216 to 217 °C.
Molecule `O=C(Cn1c(-c2ccc(Cl)cc2)nc2cccnc21)NC1=NCCS1` displayed a melting point of 227 to 229 °C.
In the case of `CCOC(=O)COc1ccc(-c2nc3ncccc3[nH]2)c(O)c1`, the melting point is 198 °C.
Then `CC(=O)OC/C(=C(\C(=O)N(C)CC(C)(C)S)c1ccc(F)cc1)c1ccc(S(C)(=O)=O)cc1`, with 45 to 47 °C; and `O=S1N=C(NCCCN(Cc2ccccc2)c2ccccn2)C(NCc2ccncc2)=N1` (centres undefined), with 140 to 142 °C; and `O=C(c1ccccc1)N1CC(c2ccccc2)c2ccccc21` (centres undefined), with 127 to 129 °C.
In the case of `COc1ccc(-c2nc(C)nn2-c2ccc(S(N)(=O)=O)cn2)cc1`, the melting point was 191 to 192 °C.
The molecule `COC(COC(=O)C1=C(C)NC2=C(C(=O)CNC2)C1c1cccc(Cl)c1C)c1ccccc1` (centres undefined) showed a melting point of 160 to 163 °C.
Then `COc1ccc(C(=O)c2cc([N+](=O)[O-])ccc2Cl)cc1OC`, with 138 °C; and `CC1(C)OC(C=Cc2cc(Cl)cc(Cl)c2)=CC1=O`, with 129 to 131 °C.
With `CCOc1cc(C2=NN(Cc3ccc(N)cc3)C(=O)CC2)ccc1OC`, the melting point was 120 °C.
In the case of `O=C(CCc1ccc(NC(=O)c2ccccc2)cc1)NO`, the melting point was 189 to 191 °C.
For `CC(O)(c1cccc(C(F)(F)F)c1)c1cc(Cl)ccc1O` (centres undefined), the melting point was found to be 115 °C.
The figure for `CC(C)(C)c1cc(C(C(=O)O)c2ccc(O)c(C(C)(C)C)c2)ccc1O` is 173 °C.
In turn, `CS(=O)(=O)c1ccc(-c2cnn(CC(F)(F)F)c(=O)c2NC2CCc3ccccc32)cc1` (centres undefined) registered a melting point of 155 to 158 °C.
`O=C(NCc1ccc(Oc2ccccc2)cc1)C1CCC1` registered a melting point of 69 to 71 °C.
The molecule `OCc1ccc2ccccc2c1Br` gave a melting point of 101 to 102 °C.
Then `C#CCCCn1ncc2c(N)c(C(=O)OCC=C)c(C)nc21`, with 99.5 °C.
For the molecule `CN1CCN(C2Cc3cc(Cl)ccc3Sc3ccc(F)cc32)CC1` (centres undefined), the melting point fell in the range of 118 to 120 °C.
Turning to `Cc1ccc(S(=O)(=O)Nc2cccc3cc(C(=O)O)[nH]c23)cc1`, the melting point was in the range of 268 to 269 °C.
The molecule `COC(=O)c1cccc(OC(=O)C(=O)Oc2cccc(C(=O)OC)c2)c1` yielded a melting point of 194 to 195 °C.
`COc1ccc(C2=NN(CCO)C(=O)[C@H]3CCCC[C@@H]23)cc1OC` (relative stereo): the melting point is 128 to 129 °C.
As to `COc1ccc2[nH]c(C(F)(F)F)cc2c1`, the melting point amounted to 60 °C.
Molecule `C/C(=C\c1ccc(C(=O)O)cc1)c1ccc(O)c(C23CC4CC(CC(C4)C2)C3)c1` gave a melting point of 245 to 246 °C.
Molecule `Cn1nc(O)cc1C(F)(F)C(F)(F)F` displayed a melting point of 119 to 124 °C.
The figure for `N=C(Nc1ccc2[nH]cc(C3CCN(C(=N)c4cccs4)CC3)c2c1)c1cccs1` is 115 to 117 °C.
Consider `COc1cc(NC(=O)Oc2ccccc2)ccc1S(=O)(=O)n1c(=O)n(C2CCCCC2)c2cc(Cl)ccc21`, for which the melting point was found to be 236 °C.
The molecule `O=C1c2cccc3cc([N+](=O)[O-])cc(c23)C(=O)N1O` had a melting point of 277 to 279 °C.
The molecule `CSc1c(C)c(-c2ncc(Cl)cc2F)nn1C` displayed a melting point of 61 to 64 °C.
`Cn1cc(-c2cccc(F)c2)c(=O)c(-c2cccc(C(F)(F)F)c2)c1` showed a melting point of 94 to 96 °C.
Turning to `O=c1[nH][nH]c(=O)n1CCCl`, the melting point lay within 192 to 193 °C.
The molecule `CCCCCCCCCCCCOc1ccc(-c2ccc(CCCCC(=O)OCC)cc2)cc1` showed a melting point of 99 °C.
With `Cc1ccc2c3c(ccc2n1)OC[C@H](CNCCCc1csc2ccc(F)cc12)O3`, the melting point is 117 to 120 °C.
As to `CS(=O)(=O)CCNc1nccc(Oc2ccc(NC(=O)c3cc(F)cc(N4CCCCC4)c3)c3ccccc23)n1`, the melting point fell in the range of 102 to 104 °C.
In turn, `Cc1noc(-c2cn(-c3cccc(-c4ccccc4OC(F)(F)F)c3)cn2)n1` displayed a melting point of 142 to 144 °C.
`CCCCc1nc2sc3c(NCc4ccco4)ncnc3c2c2c1COC(C)(C)C2` came in with a melting point of 66.1 to 68.5 °C.
Then `Nc1cccc(C#Cc2c(F)c(F)nc(F)c2F)c1`, with 172 to 173 °C.
The figure for `CC(=O)Nc1ccc(Sc2ccc(F)cc2)cc1` is 140 to 141 °C.
For the molecule `CC[C@@H](NC(=O)CCCCl)C(N)=O`, the melting point was 118 to 123 °C.
Consider `CCC1(CC)NC(=O)Oc2ccc(-c3cccc(Cl)c3)cc21`, for which the melting point was 150 to 151 °C.
